The values that follow come from patent publication US9328057B2, “Chiral arylketones in the treatment of neutrophil-dependent inflammatory diseases” (DOMPE' FARMACEUTICI S.P.A., priority 2002, dated 2016).

Usually IC50 stands for the concentration that gives 50% inhibition.

This test relates to chemiotaxis of human PMN leucocytes (PMNs) stimulated by interleukin 8. The test can be described thus: chemiotaxis of human PMNs stimulated by IL-8 (48-well microchamber). The format is cell-based. Conditions: Leucocyte, 10 min, IL-8 10 ng/mL, 10 minutes incubation at 37° C., read-out: IC50 (dose inhibiting 50% of the effect), chemiotaxis induced by IL-8 (converted). On the procedure:
For evaluation of the compounds of the invention, polymorphonucleated blood cells were used obtained from heparinized blood of healthy adult volunteers by means of sedimentation on dextran. The mononucleated cells were removed by means of Ficoll/Hypaque, whilst the red blood cells were eliminated by treatment with hypotonic solutions. The cell vitality of the polymorphonucleated leucocytes (PMNs) was calculated by means of exclusion with Turk and Trypan Blue whilst after staining with Diff Quinck the percentage of the PM-nucleates on the cytocentrifugate was estimated (for details of the experimental techniques used see W. J. Ming et al., J. Immunol., 138, 1469, 1987). In each of the in vitro experiments, time periods of 10 minutes were used for the incubation of the PMNs with the compounds of the invention, operating at a temperature of 37° C.
In the experiments of chemiotaxis and in those designed for measuring the cytosol levels of the Ca^2+ ion, human recombinant IL-8 (Pepro Tech.) was used as stimulant: the liophilized protein was dissolved in HBSS (Hank's balanced salts solution) at a concentration of 100 ng/mL and was used after dilution in HBSS down to concentrations of 10 ng/mL in the chemiotaxis experiments and at the concentration of 25-50 ng/mL in the evaluation of the modifications of [Ca^2+]. […]

Consider `CC(=O)[C@H](C)c1ccc(CC(C)C)cc1` [R(−)-3-[(4′-isobutyl)phenyl]butan-2-one, (R)(−)-3-[(4′-isobutyl)phenyl]butan-2-one], for which the IC50 is 0.5 nM.
